The supplement of paper PMC10307832

Key:
Assay in all cases: relative viability (nuclei count vs DMSO), 5 days (fraction); higher = more cells survive
[1] = test system: SK-LU-1
Outline: (§1)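 Relative viability equals treated-well nuclei counts divided by vehicle-well nuclei counts. Counts came from 4× images of lung cancer cell lines grown in 1536-well plates for 5 days after pin-tool dosing on the day after seeding. Dosing used one drug alone or a fixed anchor-drug dose plus five library-drug doses (not always all listed) in √10 steps, and values are medians of duplicate plates.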

[2] = test system: NCI-H1650
Outline: as §1

[3] = test system: NCI-H1944
Outline: as §1

[4] = test system: UMC-11
Outline: as §1

[5] = test system: COR-L23
Outline: as §1

[6] = test system: HARA
Outline: as §1

[7] = test system: HCC-15
Outline: as §1

[8] = test system: LC-2-ad
Outline: as §1

[9] = test system: ChaGo-K-1
Outline: as §1

[10] = test system: NCI-H2405
Outline: as §1

[11] = test system: NCI-H1993
Outline: as §1

[12] = test system: EMC-BAC-2
Outline: as §1

[13] = test system: NCI-H23
Outline: as §1

[14] = test system: NCI-H2009
Outline: as §1

[15] = test system: NCI-H838
Outline: as §1

[16] = test system: HCC-78
Outline: as §1

[17] = test system: LK-2
Outline: as §1

[18] = test system: A-427
Outline: as §1

[19] = test system: ABC-1
Outline: as §1

[20] = test system: HCC-366
Outline: as §1

[21] = test system: NCI-H2023
Outline: as §1

[22] = test system: NCI-H1793
Outline: as §1

[23] = test system: NCI-H1734
Outline: as §1

[24] = test system: NCI-H2228
Outline: as §1

With `CC(C)Oc1cc(Nc2nc(N[C@@H](C)c3ccc(F)cn3)ncc2Cl)n[nH]1` [AZ23] + Cc1cc(Nc2cc(N3CCN(C)CC3)nc(Sc3ccc(NC(=O)C4CC4)cc3)n2)n[nH]1 [Tozasertib] (partner 0.1 µM) the relative viability ([1]; first compound 0.03162 µM) was 0.382, the relative viability ([1]; first compound 0.3162 µM) was 0.335 and the relative viability ([2]; first compound 0.03162 µM) was 0.433. For the same compound, the relative viability ([2]; first compound 0.3162 µM) was 0.45, the relative viability ([3]; first compound 0.01 µM) was 0.279 and the relative viability ([3]; first compound 0.03162 µM) was 0.247. The relative viability ([3]; first compound 0.3162 µM) was 0.243, the relative viability ([4]; first compound 0.01 µM) was 0.181 and the relative viability ([4]; first compound 0.03162 µM) was 0.197. The relative viability ([4]; first compound 0.3162 µM) was 0.19, the relative viability ([5]; first compound 0.01 µM) was 0.135 and the relative viability ([5]; first compound 0.03162 µM) was 0.231. The relative viability ([5]; first compound 0.3162 µM) was 0.205, the relative viability ([6]; first compound 0.03162 µM) was 0.0837 and the relative viability ([6]; first compound 0.3162 µM) was 0.11. It also gave a relative viability ([7]; first compound 0.01 µM) of 0.513, a relative viability ([7]; first compound 0.03162 µM) of 0.498 and a relative viability ([7]; first compound 0.3162 µM) of 0.631. For the same compound, the relative viability ([8]; first compound 0.01 µM) was 0.467, the relative viability ([8]; first compound 0.03162 µM) was 0.446 and the relative viability ([8]; first compound 0.3162 µM) was 0.452. The relative viability ([9]; first compound 0.01 µM) was 0.234, the relative viability ([9]; first compound 0.03162 µM) was 0.234 and the relative viability ([9]; first compound 0.3162 µM) was 0.235. It also gave a relative viability ([10]; first compound 0.01 µM) of 0.709, a relative viability ([10]; first compound 0.03162 µM) of 0.774 and a relative viability ([10]; first compound 0.3162 µM) of 0.808. It also gave a relative viability ([11]; first compound 0.01 µM) of 0.593, a relative viability ([11]; first compound 0.03162 µM) of 0.604 and a relative viability ([11]; first compound 0.3162 µM) of 0.548. The relative viability ([12]; first compound 0.01 µM) was 0.262, the relative viability ([12]; first compound 0.03162 µM) was 0.28 and the relative viability ([12]; first compound 0.3162 µM) was 0.296. The relative viability ([13]; first compound 0.03162 µM) was 0.558, the relative viability ([13]; first compound 0.3162 µM) was 0.363 and the relative viability ([14]; first compound 0.01 µM) was 0.755. It also gave a relative viability ([14]; first compound 0.03162 µM) of 0.912, a relative viability ([14]; first compound 0.3162 µM) of 0.91 and a relative viability ([15]; first compound 0.01 µM) of 0.267. For the same compound, the relative viability ([15]; first compound 0.03162 µM) was 0.301, the relative viability ([15]; first compound 0.3162 µM) was 0.274 and the relative viability ([16]; first compound 0.01 µM) was 0.344. The relative viability ([16]; first compound 0.03162 µM) was 0.482, the relative viability ([16]; first compound 0.3162 µM) was 0.334 and the relative viability ([17]; first compound 0.01 µM) was 0.184. It also gave a relative viability ([17]; first compound 0.03162 µM) of 0.222, a relative viability ([17]; first compound 0.3162 µM) of 0.195 and a relative viability ([18]; first compound 0.01 µM) of 0.174. For the same compound, the relative viability ([18]; first compound 0.03162 µM) was 0.193, the relative viability ([18]; first compound 0.3162 µM) was 0.177 and the relative viability ([19]; first compound 0.01 µM) was 0.192. It also gave a relative viability ([19]; first compound 0.03162 µM) of 0.201, a relative viability ([19]; first compound 0.3162 µM) of 0.195 and a relative viability ([20]; first compound 0.01 µM) of 0.114. The relative viability ([20]; first compound 0.03162 µM) was 0.152, the relative viability ([20]; first compound 0.3162 µM) was 0.234 and the relative viability ([21]; first compound 0.03162 µM) was 0.457. It also gave a relative viability ([21]; first compound 0.3162 µM) of 0.46, a relative viability ([22]; first compound 0.01 µM) of 0.317 and a relative viability ([22]; first compound 0.03162 µM) of 0.373. For the same compound, the relative viability ([22]; first compound 0.3162 µM) was 0.339, the relative viability ([23]; first compound 0.01 µM) was 0.252 and the relative viability ([23]; first compound 0.03162 µM) was 0.289. It also gave a relative viability ([23]; first compound 0.3162 µM) of 0.276, a relative viability ([24]; first compound 0.01 µM) of 0.219 and a relative viability ([24]; first compound 0.03162 µM) of 0.247. It also gave a relative viability ([24]; first compound 0.3162 µM) of 0.265.
